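A five-concentration, 48-hour dose response in 96-well plates underlies each endpoint, interpolated linearly between surrounding concentrations. GI50 is the concentration that inhibits growth by half. At the TGI there is no net growth.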
Assays:
Experiment in all cases: NCI-60 cell line screen, 48 h
A549 NSCLC = system: A549 NSCLC
BT-549 breast = system: BT-549 breast
EKVX NSCLC = system: EKVX NSCLC
HCT-15 colon = system: HCT-15 colon
HOP-62 NSCLC = system: HOP-62 NSCLC
HT29 colon = system: HT29 colon
KM12 colon = system: KM12 colon
SK-OV-3 ovarian = system: SK-OV-3 ovarian
SNB-75 CNS = system: SNB-75 CNS
SR leukemia = system: SR leukemia

CC(=O)NNc1nc(C)c(C(=O)NNC(=O)C(=O)Nc2nc3ccc([N+](=O)[O-])cc3s2)s1
TGI (A549 NSCLC): > 100 µM
TGI (BT-549 breast): > 100 µM
TGI (EKVX NSCLC): > 100 µM
TGI (HCT-15 colon): > 100 µM
TGI (HOP-62 NSCLC): > 100 µM
TGI (HT29 colon): > 100 µM
TGI (KM12 colon): > 100 µM
TGI (SK-OV-3 ovarian): > 100 µM
TGI (SNB-75 CNS): > 100 µM
TGI (SR leukemia): > 72.2 µM

NC(=O)C1(N2CCCCC2)CCN(CCCC(=O)c2ccc(F)cc2)CC1
GI50 (A549 NSCLC): 10.4 µM
TGI (A549 NSCLC): > 100 µM
GI50 (BT-549 breast): 0.0443 µM
TGI (BT-549 breast): 14.1 µM
GI50 (EKVX NSCLC): 6.01 µM
TGI (EKVX NSCLC): > 100 µM
GI50 (HCT-15 colon): 24.7 µM
TGI (HCT-15 colon): > 100 µM
GI50 (HOP-62 NSCLC): 3.41 µM
TGI (HOP-62 NSCLC): > 100 µM
GI50 (HT29 colon): 0.818 µM
TGI (HT29 colon): > 20 µM
GI50 (KM12 colon): 1.39 µM
TGI (KM12 colon): 67.6 µM
GI50 (SK-OV-3 ovarian): 3.26 µM
TGI (SK-OV-3 ovarian): 35.3 µM
GI50 (SNB-75 CNS): 0.147 µM
TGI (SNB-75 CNS): > 100 µM
GI50 (SR leukemia): 0.0761 µM

OC(CN1CC1)C(O)CN1CC1 (stereo unspecified)
GI50 (A549 NSCLC): > 50 µg/mL
TGI (A549 NSCLC): > 50 µg/mL
GI50 (BT-549 breast): > 50 µg/mL
TGI (BT-549 breast): > 50 µg/mL
GI50 (EKVX NSCLC): > 50 µg/mL
TGI (EKVX NSCLC): > 50 µg/mL
GI50 (HCT-15 colon): > 50 µg/mL
TGI (HCT-15 colon): > 50 µg/mL
GI50 (HOP-62 NSCLC): > 50 µg/mL
TGI (HOP-62 NSCLC): > 50 µg/mL
GI50 (HT29 colon): > 50 µg/mL
TGI (HT29 colon): > 50 µg/mL
GI50 (KM12 colon): > 50 µg/mL
TGI (KM12 colon): > 50 µg/mL
GI50 (SR leukemia): > 50 µg/mL
TGI (SR leukemia): > 50 µg/mL

O=C(c1ccc2ccccc2c1)c1c(C(F)(F)F)n([O-])c2ccc(Cl)cc2[n+]1=O
GI50 (A549 NSCLC): 1.71 µM
TGI (A549 NSCLC): 3.21 µM
GI50 (BT-549 breast): 1.6 µM
TGI (BT-549 breast): 2.99 µM
GI50 (EKVX NSCLC): 1.74 µM
TGI (EKVX NSCLC): 3.17 µM
GI50 (HCT-15 colon): 1.55 µM
TGI (HCT-15 colon): 2.94 µM
GI50 (HOP-62 NSCLC): 1.86 µM
TGI (HOP-62 NSCLC): 3.46 µM
GI50 (HT29 colon): 1.52 µM
TGI (HT29 colon): 2.93 µM
GI50 (KM12 colon): 1.08 µM
TGI (KM12 colon): 2.39 µM
GI50 (SK-OV-3 ovarian): 1.75 µM
TGI (SK-OV-3 ovarian): 3.13 µM
GI50 (SNB-75 CNS): 1.3 µM
TGI (SNB-75 CNS): 2.57 µM
GI50 (SR leukemia): 0.438 µM
TGI (SR leukemia): 1.34 µM

C=CCSc1nc2ccccc2c(=O)n1Cc1ccco1
TGI (A549 NSCLC): > 100 µM
TGI (BT-549 breast): > 100 µM
TGI (EKVX NSCLC): > 100 µM
TGI (HCT-15 colon): > 100 µM
TGI (HOP-62 NSCLC): > 100 µM
TGI (HT29 colon): > 100 µM
TGI (KM12 colon): > 100 µM
TGI (SK-OV-3 ovarian): > 100 µM
TGI (SNB-75 CNS): > 100 µM
TGI (SR leukemia): > 100 µM

Cn1c2ccccc2c2c(=O)c3ccccc3[nH]c21
GI50 (A549 NSCLC): 26.9 µM
TGI (A549 NSCLC): > 100 µM
GI50 (BT-549 breast): 73.3 µM
TGI (BT-549 breast): > 100 µM
GI50 (EKVX NSCLC): 44.1 µM
TGI (EKVX NSCLC): > 100 µM
GI50 (HCT-15 colon): 40.1 µM
TGI (HCT-15 colon): > 100 µM
GI50 (HOP-62 NSCLC): 38.9 µM
TGI (HOP-62 NSCLC): > 100 µM
GI50 (HT29 colon): 54 µM
TGI (HT29 colon): > 100 µM
GI50 (KM12 colon): 22.1 µM
TGI (KM12 colon): > 100 µM
GI50 (SNB-75 CNS): 84.7 µM
TGI (SNB-75 CNS): > 100 µM
GI50 (SR leukemia): > 100 µM
TGI (SR leukemia): > 100 µM

COCCOCCOCc1n(Cc2ccc3ccccc3n2)c2ccccc2[n+]1Cc1ccc2ccccc2c1
GI50 (A549 NSCLC): 0.748 µM
TGI (A549 NSCLC): 10.6 µM
GI50 (BT-549 breast): 0.277 µM
TGI (BT-549 breast): 0.977 µM
GI50 (EKVX NSCLC): 1.27 µM
TGI (EKVX NSCLC): 10.8 µM
GI50 (HCT-15 colon): 3.48 µM
TGI (HCT-15 colon): 13.6 µM
GI50 (HOP-62 NSCLC): 0.468 µM
TGI (HOP-62 NSCLC): 2.52 µM
GI50 (HT29 colon): 0.292 µM
TGI (HT29 colon): 1.43 µM
GI50 (KM12 colon): 0.388 µM
TGI (KM12 colon): 1.63 µM
GI50 (SK-OV-3 ovarian): 0.501 µM
TGI (SK-OV-3 ovarian): 2.68 µM
GI50 (SNB-75 CNS): 0.312 µM
TGI (SNB-75 CNS): 1.35 µM
GI50 (SR leukemia): 0.273 µM
TGI (SR leukemia): 1.07 µM

O=C1c2cccnc2-c2nc(-c3ccncc3)cc3c2c1nc1ccccc13
GI50 (BT-549 breast): 24.6 µM
TGI (BT-549 breast): 62.1 µM
GI50 (EKVX NSCLC): 24.3 µM
TGI (EKVX NSCLC): > 100 µM
GI50 (HCT-15 colon): 10.2 µM
TGI (HCT-15 colon): 21.8 µM
GI50 (HOP-62 NSCLC): 14.3 µM
TGI (HOP-62 NSCLC): 27.4 µM
GI50 (HT29 colon): 17.9 µM
TGI (HT29 colon): 31.7 µM
GI50 (SK-OV-3 ovarian): > 100 µM
TGI (SK-OV-3 ovarian): > 100 µM
GI50 (SNB-75 CNS): 13.1 µM
TGI (SNB-75 CNS): 25.8 µM
GI50 (SR leukemia): 2.94 µM
TGI (SR leukemia): > 100 µM

Cn1c([N+](=O)[O-])cnc1/C=C1\Oc2cc(Cl)ccc2C1=O
GI50 (A549 NSCLC): 1.7 µM
TGI (A549 NSCLC): 7.06 µM
GI50 (BT-549 breast): 0.996 µM
TGI (BT-549 breast): 4.9 µM
GI50 (HCT-15 colon): 0.267 µM
TGI (HCT-15 colon): 1.05 µM
GI50 (HOP-62 NSCLC): 1.88 µM
TGI (HOP-62 NSCLC): 6.07 µM
GI50 (HT29 colon): 0.203 µM
TGI (HT29 colon): 0.657 µM
GI50 (KM12 colon): 0.501 µM
TGI (KM12 colon): 6.78 µM
GI50 (SK-OV-3 ovarian): 1.94 µM
TGI (SK-OV-3 ovarian): > 22.8 µM
GI50 (SNB-75 CNS): 1.8 µM
TGI (SNB-75 CNS): 9.38 µM
GI50 (SR leukemia): 0.0393 µM
TGI (SR leukemia): 0.344 µM

O=C1C(SCCO)=C(SCCO)C(=O)c2ccccc21
TGI (A549 NSCLC): 3.7 µM
TGI (BT-549 breast): 2.89 µM
TGI (EKVX NSCLC): 3.08 µM
TGI (HCT-15 colon): 3.58 µM
TGI (HOP-62 NSCLC): 3.77 µM
TGI (HT29 colon): 3.98 µM
TGI (KM12 colon): 3.76 µM
TGI (SK-OV-3 ovarian): 3.08 µM
TGI (SNB-75 CNS): 2.57 µM
TGI (SR leukemia): 3.74 µM

O=S1(=O)NCCCN1CCNc1nccc(-c2c(-c3cccc(O)c3)nc3sccn23)n1
GI50 (A549 NSCLC): 42.5 µM
TGI (A549 NSCLC): > 100 µM
GI50 (BT-549 breast): 24.3 µM
TGI (BT-549 breast): > 100 µM
GI50 (EKVX NSCLC): 61.3 µM
TGI (EKVX NSCLC): > 100 µM
GI50 (HCT-15 colon): 43.6 µM
TGI (HCT-15 colon): > 100 µM
GI50 (HOP-62 NSCLC): 42.3 µM
TGI (HOP-62 NSCLC): > 100 µM
GI50 (HT29 colon): 7.65 µM
TGI (HT29 colon): > 100 µM
GI50 (KM12 colon): 33.3 µM
TGI (KM12 colon): > 90.4 µM
GI50 (SK-OV-3 ovarian): 5.93 µM
TGI (SK-OV-3 ovarian): 63.8 µM
GI50 (SNB-75 CNS): 7.78 µM
TGI (SNB-75 CNS): > 100 µM
GI50 (SR leukemia): 5.55 µM
TGI (SR leukemia): 59.3 µM

C=C(CN1CCc2ccccc2C1)c1ccc(C(=O)Nc2ccccc2N)cc1
GI50 (A549 NSCLC): 2.05 µM
TGI (A549 NSCLC): > 50 µM
GI50 (BT-549 breast): 1.69 µM
TGI (BT-549 breast): 6.16 µM
GI50 (EKVX NSCLC): 5.68 µM
TGI (EKVX NSCLC): > 50 µM
GI50 (HCT-15 colon): 0.94 µM
TGI (HCT-15 colon): 5.11 µM
GI50 (HOP-62 NSCLC): 1 µM
TGI (HOP-62 NSCLC): 17 µM
GI50 (KM12 colon): 1.26 µM
TGI (KM12 colon): 4.54 µM
GI50 (SK-OV-3 ovarian): 1.08 µM
TGI (SK-OV-3 ovarian): 3.17 µM
GI50 (SR leukemia): 0.484 µM
TGI (SR leukemia): > 50 µM

CCCCCCCCCCCCCCCCCCNC(=O)[C@H]1CSC(c2cccs2)N1 (stereo partly specified)
GI50 (A549 NSCLC): 1.69 µM
TGI (A549 NSCLC): > 50 µM
GI50 (BT-549 breast): 0.983 µM
TGI (BT-549 breast): 1.89 µM
GI50 (HCT-15 colon): 2.08 µM
TGI (HCT-15 colon): > 50 µM
GI50 (HOP-62 NSCLC): 0.959 µM
TGI (HOP-62 NSCLC): 1.71 µM
GI50 (HT29 colon): 1.46 µM
TGI (HT29 colon): 4.2 µM
GI50 (KM12 colon): 0.977 µM
TGI (KM12 colon): 1.98 µM
GI50 (SK-OV-3 ovarian): 4.51 µM
TGI (SK-OV-3 ovarian): 18.3 µM
GI50 (SNB-75 CNS): 0.811 µM
TGI (SNB-75 CNS): 1.58 µM
GI50 (SR leukemia): 0.94 µM
TGI (SR leukemia): 2.62 µM

O=C(/C=C/c1ccccc1)CC(c1ccccc1)N1CCOCC1 (stereo unspecified)
GI50 (A549 NSCLC): 11.7 µM
TGI (A549 NSCLC): 29 µM
GI50 (BT-549 breast): 1.86 µM
TGI (BT-549 breast): 3.62 µM
GI50 (EKVX NSCLC): 9.52 µM
TGI (EKVX NSCLC): 22.3 µM
GI50 (HCT-15 colon): 1.96 µM
TGI (HCT-15 colon): 5.52 µM
GI50 (HOP-62 NSCLC): 3.25 µM
TGI (HOP-62 NSCLC): 11.9 µM
GI50 (HT29 colon): 3.7 µM
TGI (HT29 colon): 16.7 µM
GI50 (KM12 colon): 1.99 µM
TGI (KM12 colon): 3.72 µM
GI50 (SK-OV-3 ovarian): 14.4 µM
TGI (SK-OV-3 ovarian): 30.7 µM
GI50 (SNB-75 CNS): 12.5 µM
TGI (SNB-75 CNS): 27.7 µM
GI50 (SR leukemia): 2.71 µM
TGI (SR leukemia): 8.92 µM

— PubChem BioAssay (NCI)
